The record followed here is ChEMBL document CHEMBL1130264 (J Med Chem, 1997).

Bounds are passed on as bounds.

The target of assay [1] is T1, Neuronal acetylcholine receptor subunit alpha-7 (Homo sapiens, UniProt P36544). Kind of assay: Compound was evaluated for functional potencies and efficacies at human Nicotinic acetylcholine receptor alpha7.
The species entered for assay [2] is Rattus norvegicus. As to the kind of experiment: Compound was evaluated for functional potencies and efficacies at rat nAChR subtype DA release. The format is organism-based.
Assay [3] concerns the target T2, Neuronal acetylcholine receptor; alpha4/beta2 (Homo sapiens, UniProt P17787+P43681). Kind of assay: Compound was evaluated for functional potencies and efficacies at human Nicotinic acetylcholine receptor alpha4-beta2. The class given is protein-complex assay.
In assay [4] the target is T3, Neuronal acetylcholine receptor; alpha4/beta2 (Rattus norvegicus, UniProt P09483+P12390). As to the kind of experiment: Binding potency for Nicotinic acetylcholine receptor alpha4-beta2 (rat brain).
T3 sequence (P09483 whole entry): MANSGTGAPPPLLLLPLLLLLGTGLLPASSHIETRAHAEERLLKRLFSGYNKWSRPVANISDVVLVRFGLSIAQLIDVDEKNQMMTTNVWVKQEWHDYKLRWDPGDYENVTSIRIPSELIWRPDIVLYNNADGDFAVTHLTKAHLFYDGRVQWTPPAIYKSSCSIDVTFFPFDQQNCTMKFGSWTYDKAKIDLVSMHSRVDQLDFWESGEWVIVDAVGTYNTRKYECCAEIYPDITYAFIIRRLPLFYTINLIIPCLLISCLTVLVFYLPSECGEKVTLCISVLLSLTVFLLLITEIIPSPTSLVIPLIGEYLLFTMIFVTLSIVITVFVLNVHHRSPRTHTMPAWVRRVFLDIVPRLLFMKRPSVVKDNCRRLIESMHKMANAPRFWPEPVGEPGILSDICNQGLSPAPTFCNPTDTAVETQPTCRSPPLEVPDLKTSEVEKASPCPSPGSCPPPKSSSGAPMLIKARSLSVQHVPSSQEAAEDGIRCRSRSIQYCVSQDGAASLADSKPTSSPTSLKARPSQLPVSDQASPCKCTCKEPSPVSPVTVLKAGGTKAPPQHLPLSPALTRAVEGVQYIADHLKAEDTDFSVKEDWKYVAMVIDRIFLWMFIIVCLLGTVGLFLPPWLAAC
T3 sequence (P12390 whole entry): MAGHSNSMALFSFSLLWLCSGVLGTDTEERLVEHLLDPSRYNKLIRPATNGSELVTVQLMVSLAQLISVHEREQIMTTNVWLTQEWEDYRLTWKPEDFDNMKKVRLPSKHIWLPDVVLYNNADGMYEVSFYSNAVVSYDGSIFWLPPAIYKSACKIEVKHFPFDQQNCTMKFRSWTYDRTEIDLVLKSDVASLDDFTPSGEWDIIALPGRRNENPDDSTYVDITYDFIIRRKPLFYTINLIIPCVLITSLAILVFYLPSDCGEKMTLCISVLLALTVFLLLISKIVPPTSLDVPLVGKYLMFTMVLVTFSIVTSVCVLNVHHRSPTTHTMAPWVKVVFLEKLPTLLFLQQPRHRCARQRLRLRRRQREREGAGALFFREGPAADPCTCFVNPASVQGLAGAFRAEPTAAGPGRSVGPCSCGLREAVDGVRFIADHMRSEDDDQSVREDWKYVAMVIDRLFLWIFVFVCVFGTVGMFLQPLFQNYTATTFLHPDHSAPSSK
The target in assay [5] is T3, Neuronal acetylcholine receptor; alpha4/beta2. Kind of assay: Functional potency for Nicotinic acetylcholine receptor alpha4-beta2 (rat brain).
Assay [6] deals with T4, Neuronal acetylcholine receptor subunit alpha-7 (Rattus norvegicus, UniProt Q05941). Kind of assay: Binding potency for Nicotinic acetylcholine receptor alpha-7 (rat brain).
T4 sequence (Q05941 whole entry): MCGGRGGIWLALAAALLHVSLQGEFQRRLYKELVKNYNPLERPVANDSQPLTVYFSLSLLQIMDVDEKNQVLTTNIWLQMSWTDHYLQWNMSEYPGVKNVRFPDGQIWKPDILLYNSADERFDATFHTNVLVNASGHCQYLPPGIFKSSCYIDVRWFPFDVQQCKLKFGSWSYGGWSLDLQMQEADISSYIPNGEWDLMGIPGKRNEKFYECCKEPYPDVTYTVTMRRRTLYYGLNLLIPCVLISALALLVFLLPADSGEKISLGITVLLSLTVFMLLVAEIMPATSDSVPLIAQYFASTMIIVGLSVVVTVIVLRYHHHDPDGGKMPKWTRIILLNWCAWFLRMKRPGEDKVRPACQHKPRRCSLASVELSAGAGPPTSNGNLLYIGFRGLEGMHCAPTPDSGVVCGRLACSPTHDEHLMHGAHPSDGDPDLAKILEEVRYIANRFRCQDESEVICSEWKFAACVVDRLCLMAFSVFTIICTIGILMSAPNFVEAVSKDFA
Assay [7] addresses T4, Neuronal acetylcholine receptor subunit alpha-7. As to the kind of experiment: Functional potency for Nicotinic acetylcholine receptor alpha-7 (rat brain).
For assay [8], the target named is T3, Neuronal acetylcholine receptor; alpha4/beta2. As to the kind of experiment: Compound was evaluated for functional potencies and efficacies at rat Nicotinic acetylcholine receptor alpha4-beta2. The class given is protein-complex assay.
The species entered for assay [9] is Rattus norvegicus. Kind of assay: compound was evaluated for functional potencies and efficacies at rat nAChR subtype DA release. The format is organism-based.
In assay [10] the target is Neuronal acetylcholine receptor; alpha3/beta4 (Homo sapiens, UniProt P30926+P32297). Kind of assay: Compound was evaluated for functional potencies and efficacies at human Nicotinic acetylcholine receptor subtype IMR-32 (ganglionic). The format is protein-complex assay.
Neuronal acetylcholine receptor; alpha3/beta4, sequence (P30926 whole entry): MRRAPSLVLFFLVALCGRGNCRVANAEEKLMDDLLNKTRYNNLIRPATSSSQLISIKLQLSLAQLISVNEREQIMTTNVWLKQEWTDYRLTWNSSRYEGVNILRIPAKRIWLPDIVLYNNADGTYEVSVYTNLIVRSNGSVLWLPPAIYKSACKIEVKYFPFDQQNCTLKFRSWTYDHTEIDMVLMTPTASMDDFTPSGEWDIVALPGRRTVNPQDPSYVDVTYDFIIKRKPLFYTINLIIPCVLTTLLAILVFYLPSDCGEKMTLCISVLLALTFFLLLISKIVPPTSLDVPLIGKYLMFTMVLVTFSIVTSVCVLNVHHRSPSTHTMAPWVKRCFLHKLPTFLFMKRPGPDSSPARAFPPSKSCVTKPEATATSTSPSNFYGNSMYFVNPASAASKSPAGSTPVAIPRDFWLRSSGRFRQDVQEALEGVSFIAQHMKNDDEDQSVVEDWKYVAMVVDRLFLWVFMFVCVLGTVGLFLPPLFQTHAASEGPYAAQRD
Neuronal acetylcholine receptor; alpha3/beta4, sequence (P32297 whole entry): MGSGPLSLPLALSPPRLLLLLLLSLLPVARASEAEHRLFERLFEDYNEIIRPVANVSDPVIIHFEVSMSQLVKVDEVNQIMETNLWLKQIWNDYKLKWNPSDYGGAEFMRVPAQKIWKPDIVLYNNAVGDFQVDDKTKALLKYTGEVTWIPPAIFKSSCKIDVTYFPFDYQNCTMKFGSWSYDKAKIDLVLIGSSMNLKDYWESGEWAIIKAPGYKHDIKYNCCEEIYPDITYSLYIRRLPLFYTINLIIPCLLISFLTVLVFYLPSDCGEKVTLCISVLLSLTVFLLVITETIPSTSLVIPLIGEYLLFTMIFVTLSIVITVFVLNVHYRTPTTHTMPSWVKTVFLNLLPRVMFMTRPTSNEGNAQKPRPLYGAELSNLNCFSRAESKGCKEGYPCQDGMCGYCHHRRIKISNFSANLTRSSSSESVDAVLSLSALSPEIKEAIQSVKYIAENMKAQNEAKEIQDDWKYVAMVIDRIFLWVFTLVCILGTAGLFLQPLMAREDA
For the next assay, the system named is TE-671. Kind of assay: Stimulation of ion flux in TE671 cells. The format is functional, cell-based. To be noted: Homo sapiens.
Assay [11] has as its target T1, Neuronal acetylcholine receptor subunit alpha-7. As to the kind of experiment: Compound was evaluated for functional potencies and efficacies at human Nicotinic acetylcholine receptor alpha7; low efficacy.
For assay [12], the target named is T2, Neuronal acetylcholine receptor; alpha4/beta2. Kind of assay: Compound was evaluated for functional potencies and efficacies at human Nicotinic acetylcholine receptor alpha4-beta2; low efficacy. The class given is protein-complex assay.
For assay [13], the target named is T1, Neuronal acetylcholine receptor subunit alpha-7. As to the kind of experiment: (§1) Affinity for Nicotinic acetylcholine receptor alpha7.
Assay [14] concerns the target T5, Acetylcholine receptor (Torpedo californica, UniProt P02710+P02712+P02714+P02718). As to the kind of experiment: Binding potency for nAChR subtype Alpha-1-beta-1-delta gamma(torpedo). The class given is protein-complex assay.
The target in assay [15] is T5, Acetylcholine receptor. As to the kind of experiment: Functional potency for nAChR subtype Alpha1-beta1 delta gamma (torpedo). The class given is protein-complex assay.
The target in assay [16] is T6, Neuronal acetylcholine receptor (Rattus norvegicus) (UniProt P04757+P09483+P12389+P12390+P12392+P43144+Q9JLB5+P12391+P43143+P20420+Q05941). As to the kind of experiment: compound was evaluated for functional potency and efficacy at rat Nicotinic acetylcholine receptor subtype DA release at 10 uM.
In assay [17] the target is T6, Neuronal acetylcholine receptor (Rattus norvegicus). As to the kind of experiment: Compound was evaluated for functional potency and efficacy at rat Nicotinic acetylcholine receptor subtype DA release at 1 uM.
The target in assay [18] is Muscle-type nicotinic acetylcholine receptor. Kind of assay: Compound was evaluated for functional potencies and efficacies at human muscle type Nicotinic acetylcholine receptor in TE671 cells. The class given is cell-based. To be noted: te-671.
Assay [19] addresses T1, Neuronal acetylcholine receptor subunit alpha-7. As to the kind of experiment: Ability to block activation of acetylcholine-stimulated currents in human alpha-7 homomers expressed in oocytes. The format is functional, cell-based, Oocyte.
The target in assay [20] is Neuronal acetylcholine receptor. As to the kind of experiment: Compound was evaluated for functional potencies and efficacies at rat Nicotinic acetylcholine receptor subtype PC12 (ganglionic). The class given is cell-based. To be noted: pc-12.
In assay [21] the target is T4, Neuronal acetylcholine receptor subunit alpha-7. Described as §1.
The target of assay [22] is T3, Neuronal acetylcholine receptor; alpha4/beta2. Kind of assay: Compound was evaluated for functional potencies and efficacies at rat Recombinant Nicotinic acetylcholine receptor alpha4-beta2; low efficacy. The format is protein-complex assay.
In assay [23] the target is T5, Acetylcholine receptor.
The target of assay [24] is T5, Acetylcholine receptor. The source holds these as a separate data set.
The target of assay [25] is Neuronal acetylcholine receptor. As to the kind of experiment: Compound was evaluated for functional potency and efficacy at rat Nicotinic acetylcholine receptor in PC12 cells (ganglionic). The class given is cell-based. To be noted: pc-12.

T1 sequence (P36544 whole entry): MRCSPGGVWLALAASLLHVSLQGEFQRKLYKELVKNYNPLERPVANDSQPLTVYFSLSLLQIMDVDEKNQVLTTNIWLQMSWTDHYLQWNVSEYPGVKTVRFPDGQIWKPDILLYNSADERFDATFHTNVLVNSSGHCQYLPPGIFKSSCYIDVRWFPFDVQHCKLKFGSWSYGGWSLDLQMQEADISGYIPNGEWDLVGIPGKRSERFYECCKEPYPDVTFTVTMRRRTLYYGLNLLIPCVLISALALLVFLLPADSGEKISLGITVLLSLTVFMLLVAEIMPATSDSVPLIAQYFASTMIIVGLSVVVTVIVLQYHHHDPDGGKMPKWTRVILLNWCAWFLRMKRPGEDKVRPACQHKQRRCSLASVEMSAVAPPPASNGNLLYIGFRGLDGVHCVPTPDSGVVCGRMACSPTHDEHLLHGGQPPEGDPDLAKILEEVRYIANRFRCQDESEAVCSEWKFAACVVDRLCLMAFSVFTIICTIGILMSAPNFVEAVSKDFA
T2 sequence (P17787 whole entry): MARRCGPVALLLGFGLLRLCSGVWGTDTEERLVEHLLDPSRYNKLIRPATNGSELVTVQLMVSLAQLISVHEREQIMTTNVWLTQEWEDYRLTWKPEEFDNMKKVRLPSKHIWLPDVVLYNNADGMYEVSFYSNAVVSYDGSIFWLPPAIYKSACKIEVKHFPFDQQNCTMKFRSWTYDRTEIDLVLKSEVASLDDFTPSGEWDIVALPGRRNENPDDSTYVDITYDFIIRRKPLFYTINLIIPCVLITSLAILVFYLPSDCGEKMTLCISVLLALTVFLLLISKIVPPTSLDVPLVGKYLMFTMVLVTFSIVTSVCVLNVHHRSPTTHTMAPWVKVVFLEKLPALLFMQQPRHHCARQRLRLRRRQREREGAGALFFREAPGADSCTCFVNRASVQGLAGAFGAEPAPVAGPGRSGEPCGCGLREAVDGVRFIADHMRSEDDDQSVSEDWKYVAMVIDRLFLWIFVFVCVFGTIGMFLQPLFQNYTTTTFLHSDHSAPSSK
T2 sequence (P43681 whole entry): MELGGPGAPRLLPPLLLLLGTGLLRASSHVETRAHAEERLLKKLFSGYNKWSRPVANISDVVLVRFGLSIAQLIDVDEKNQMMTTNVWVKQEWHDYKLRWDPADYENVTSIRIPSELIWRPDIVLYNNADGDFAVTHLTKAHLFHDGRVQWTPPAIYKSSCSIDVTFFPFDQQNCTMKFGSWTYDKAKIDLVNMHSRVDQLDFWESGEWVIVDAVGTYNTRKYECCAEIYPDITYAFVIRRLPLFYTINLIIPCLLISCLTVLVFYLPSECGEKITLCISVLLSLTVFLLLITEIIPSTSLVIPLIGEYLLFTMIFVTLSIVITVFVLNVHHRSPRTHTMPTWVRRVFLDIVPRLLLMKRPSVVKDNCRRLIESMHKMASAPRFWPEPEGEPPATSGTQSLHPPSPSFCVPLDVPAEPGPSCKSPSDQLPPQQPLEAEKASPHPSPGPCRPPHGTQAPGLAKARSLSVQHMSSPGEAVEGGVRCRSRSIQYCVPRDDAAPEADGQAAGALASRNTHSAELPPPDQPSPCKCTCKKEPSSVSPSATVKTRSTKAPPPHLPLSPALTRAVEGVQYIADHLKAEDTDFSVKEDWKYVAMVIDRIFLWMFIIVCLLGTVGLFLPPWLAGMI

On to `C[N+]1(C)CCN(c2ccccc2)CC1` [DIMETHYLPHENYLPIPERAZINIUM], for which the EC50 in assay [1] was determined as 95 µM; in the assay filed under Rattus norvegicus [2] it was 4300 nM; in [3] it was 2.5 µM.
On to `CO[C@@H]1CC=C2CCN3CCC4=C(CC(=O)OC4)[C@@]23C1`, for which the EC50 was 19.6 µM in assay [1]; 30 nM in the assay listed under Rattus norvegicus [2]; 0.7 µM in [5]; 8.9 µM in assay [7]; 0.37 µM in [8]. Also, the values for the Ki in assay [4] and in assay [6] were 0.04 nM and 148 nM, respectively.
Regarding `c1cncc(OC[C@@H]2CCN2)c1`, the EC50 in assay [1] turned out to be 8.9 µM; in assay [3] it was 0.7 µM; in the assay filed under Rattus norvegicus [9], 3 nM; in [10] (read-out: EC50), 0.7 µM.
In turn, `C[N+](C)(C)CCOC(=O)CCC(=O)OCC[N+](C)(C)C` [SUXAMETHONIUM] registered an EC50 in the assay with TE-671 of 30 µM.
In the case of `Cc1ncccc1OC[C@@H]1CCCN1` [POZANICLINE], the EC50 in the assay listed under Rattus norvegicus [2] is 1100 nM; in assay [11], “Low efficacy”; in assay [12], “Low efficacy”; in assay [10], “Low efficacy”. In assay [13], this compound came in with a Ki greater than 10 µM.
`Cc1cc([C@@H]2CCCN2C)on1` [ABT-418]: the EC50 stood at 264 µM in [1]; 380 nM in the assay listed under Rattus norvegicus [2]; 10 µM in assay [5]; 411 µM at Acetylcholine receptor [15]; 264 µM in [7]; 6 µM in [8]. Also, in assay [10] (read-out: EC50), the EC50 is 64 µM. Also, the figures for the Ki (in assay [4]; at Acetylcholine receptor [14]; in assay [6]) were 7.89 nM, greater than 10 µM and greater than 10000 nM, respectively.
With `CN1CCC[C@H]1COc1cccnc1`, the Potency is 90% in assay [16] and 55% in assay [17].
`CNC1(C)C2CCC(C2)C1(C)C` (centres undefined) [MECAMYLAMINE] displayed an EC50 in [18] of 30 µM. The same compound registered an IC50 in [19] of 1800 nM.
As to `O=c1cccc2n1C[C@@H]1CNC[C@H]2C1` [CYTISINICLINE], the EC50 was 71 µM in assay [1]; 60 nM in the assay filed under Rattus norvegicus [2]; 10 µM in assay [20]; 38 µM in [3]; 26 µM in [10] (read-out: EC50).
Regarding `Clc1ccc(C2CC3CCC2N3)cn1` (racemic) [EPIBATIDINE], the EC50 in assay [1] amounted to 3.5 µM; in the assay listed under Rattus norvegicus [2] it was 37 nM.
On to `CNCC/C=C/c1cccnc1` [RIVANICLINE], for which the EC50 in the assay listed under Rattus norvegicus [2] turned out to be 940 nM; in [3] it was 4.3 µM; in assay [10] (read-out: EC50) it was 46 µM. Also, in assay [21], the inhibitory constant (Ki) amounted to 36 µM.
`COc1ccc(/C=C2\CCCN=C2c2cccnc2)c(OC)c1` [GTS-21]: the EC50 in the assay listed under Rattus norvegicus [2] was 10000 nM; in assay [11], “Low efficacy”; in [12], “Low efficacy”; in assay [10], “Low efficacy”; in [22] it was “Low efficacy”.
For the compound `CN1CCC[C@H]1c1cccnc1` [NICOTINE], the EC50 is 40 nM in the assay listed under Rattus norvegicus [2] and 60 µM on Acetylcholine receptor [24]. On Acetylcholine receptor [23], the Ki was greater than 10 µM.
`CC(=O)C1=CC[N+](C)(C)CC1` displayed an EC50 in [25] of 100 µM.
